Test results as given in a melting point compilation (Tetko et al.; mined from patent text by program, amines drawn as free bases though some values may be those of a salt).

Row | Compound | melting point [°C]
1 | O=S(=O)(Cc1ccc(Cc2ccc(NC3=NCCN3)cc2)cc1)NCc1ccccc1 | 115 to 118
2 | CN1C(=O)C(c2ccc(OCCCCBr)cc2)Sc2cc(Cl)ccc21 (stereo not given) | 70 to 72
3 | COc1ccc(-n2c(C)nc3ccccc32)cc1 | 121 to 123
4 | C(=C1CCCc2cccnc21)c1ccccc1 | 58 to 59
5 | Cc1nc2ccccc2c(=O)n1-c1ccccc1C#N | 165 to 166
6 | CC1(C)[C@@H]2CC3[C@H](C(=O)NCC(N)=O)[C@@]3(C)C[C@@H]21 (stereo not given in full) | 169 to 170
7 | COc1ccc(Cl)cc1-c1c(CCO)c(=O)[nH]c2ccc(C(F)(F)F)cc12 | 216 to 217
8 | c1ccc(Oc2ccc(OCCCn3ccnc3)cc2)cc1 | 54.5 to 55.5
9 | Cn1c2c(c3ccccc31)SCCC2(C)C=O (stereo not given) | 119 to 123
10 | CS(=O)(=O)c1ccc(-c2nc3n(c2-c2ccncc2)CCC3)cc1 | 222 to 224
11 | CCCCCCCCCCCCCCCCCCOC(=O)CBr | 37 to 40
12 | COc1ccc2nc3c(cc2c1)c(C(N)=O)nn3C | 268 to 270
13 | O=c1oc(-c2ccccc2Cl)nn1-c1ccccc1C(F)(F)F | 100 to 102
14 | O=C(Nc1ccc(O)c(C(=O)O)c1)OCc1ccccc1 | 184 to 186
15 | CC(=O)NCC1CN(c2ccc(-c3cccc(CF)c3)c(F)c2)C(=O)O1 (stereo not given) | 120 to 122
16 | OC1CSC(Oc2ccc(-c3cncnc3)nc2)C(O)C1O (stereo not given) | 188
17 | O=C(O)C/C=C/CC(=O)O | 197 to 198
18 | O=C(c1ccccc1)c1ccc(OCCCCBr)cc1 | 42 to 43
19 | Cc1c(C)c2c(c(C)c1NC(=O)c1ccc(C(=O)O)cc1)C(c1ccc(C(C)C)cc1)C(C)(C)O2 (stereo not given) | 258 to 261
20 | COC(=O)c1ccc(OC(=O)c2ccccc2)cc1OC | 91
21 | COc1c(CCCI)cccc1OCc1coc(/C=C/c2ccccc2)n1 | 103 to 104
22 | COCC(=O)N[C@H]1CC[C@H](CCN2CCN(c3nccc4c3CCO4)CC2)CC1 | 170
23 | CCc1nc2ccccc2c(=O)n1CCCOc1ccc(SC(C)(C)C(=O)O)cc1 | 156 to 158
24 | N#Cc1cnc2cc3cc(O)ccc3cc2c1Nc1ccc(Cl)cc1Cl | 267 to 269
25 | CCCc1nc(C(C)(O)CC)c(C#N)n1C(c1ccccc1)(c1ccccc1)c1ccccc1 (stereo not given) | > 120

Row | Compound | melting point [°C]
26 | Cc1ccc2c(C(C)C(=O)O)cc(=O)[nH]c2c1 (stereo not given) | 209 to 210
27 | CN1C(C(=O)Nc2cc(Cl)ncn2)=C(O)c2ccc3ccccc3c2S1(=O)=O | 263
28 | N=C(N=C1NC(=O)C(=O)N1c1ccc(Cl)c(Cl)c1)Nc1ccc(Cl)c(Cl)c1 | 220
29 | O=C(Nc1n[nH]c(-c2ccc(F)cc2)c1-c1ccncc1)C(F)(F)F | 260 to 265
30 | CCc1nc2c(N)nc(C)c(C)c2n1NC1CCCCC1 | 190 to 192
31 | CC(C)(C)C(=O)Oc1ccc(CCNC(=O)c2cccnc2)cc1OC(=O)C(C)(C)C | 112 to 114
32 | Fc1ccc(Cn2c(NC3CCNCC3)nc3ccccc32)cc1 | 216
33 | COC(=O)C[C@@H](SCc1ccccc1)C(N)=O | 146 to 149
34 | CCC(O)c1ccc(Cl)c2nc3n(c12)CCCN3c1ccc(Cl)cc1C(F)(F)F (stereo not given) | 220 to 222
35 | CCn1cc(C(=O)O)c(=O)c2cc(F)c(N3CCC4CCC(C3)N4)cc21 (stereo not given) | 147 to 150
36 | O=C(Nc1ccccc1F)c1ccccn1 | 112 to 115
37 | Cc1nc2cnccc2n1-c1ccc(C2=Nc3ccccc3NC(=O)C2)cn1 | 208 to 210
38 | Cc1oc2ccccc2c(=O)c1N | 118 to 120
39 | Cc1cc2oc3ccccc3c(=O)c2cc1OCC(=O)O | 225 to 227
40 | C=CCn1c(=O)[nH]c(=O)c2[nH]c(C34CC5CC(CC3C5)C4)nc21 | > 270
41 | Fc1ccc2cc(C3=CCNCC3)sc2c1 | 155 to 157
42 | COc1ccc(-c2nc(C(N)(C(F)(F)F)C(F)(F)F)[nH]c2-c2ccc(OC)cc2)cc1 | 127 to 128
43 | COCn1cnc(-c2ccc(OC)cc2)c1-c1ccc(OC)cc1 | 99 to 101
44 | O=C1CCN(C(=O)N2CCN3C(=O)OC(c4ccccc4)(c4ccccc4)C3C2)c2ccccc21 (stereo not given) | 202 to 205
45 | CC1CC(=O)NN=C1c1ccc(NC(=O)c2cccs2)cc1 (stereo not given) | 256 to 258
46 | Cn1c(C(F)(F)F)cc(=O)n(-c2cc(OC(=O)C3CCCCC3)c(Cl)cc2F)c1=O | 97 to 101
47 | O=C(Nc1ccc(F)c(Cl)c1F)C(F)(F)F | 73 to 74
48 | COC(=O)c1cc(NC(C)=O)cc(NC(C)=O)c1 | 220 to 221
49 | N#Cc1cc(C(=O)c2ccc(C(F)(F)F)cc2)cc(O)c1O | 204 to 206
50 | CC(C)(C)c1cc2c(c(C(C)(C)C)c1)OC(C(F)(F)F)C(C(=O)O)=C2 (stereo not given) | 172 to 175

Row | Compound | melting point [°C]
51 | Cc1oc(-c2ccccc2)nc1COc1ccc2cc(/C=C/C=O)oc2c1 | 132 to 133
52 | COC(=O)c1cccc(C=NO)c1 | 107 to 108
53 | COc1cccc(Oc2ccc(C(=O)N(C(C)C)C3CCCCC3)cc2)c1 | 101
54 | C=C(C)Cc1c(O)cc(C)c(NC=O)c1C | 207 to 209
55 | CCCc1c(C(=O)OCC)[nH]c(CC)c1C | 73 to 74
56 | Cc1nc2ccc3c(c2o1)OC(CNC1CCC(c2c[nH]c4ccc(F)cc24)C1)CO3 (stereo not given) | 79 to 82
57 | CCN(CC)Cc1nc(-c2ncn3c2CN(C)C(=O)c2c(Cl)cccc2-3)no1 | 250 to 252
58 | Cc1oc(-c2ccccc2)nc1COc1nn(Cc2ccc(Oc3ccccc3)cc2)cc1C(=O)O | 222 to 223
59 | CN(C#N)C(=O)CCC(=O)N(C)C#N | 112 to 114
60 | COc1cc(O)c(C(=O)C=Cc2ccc(OC(C)=O)cc2)c(OC)c1 | 142
61 | O=CN1CC2CCCc3cccc1c32 (stereo not given) | 93 to 94
62 | CCCCC(CC)COc1ccc(-n2c(C)cc(=O)cc2C)cc1 (stereo not given) | 143
63 | O=Cc1ccc(-c2ncc(Cl)cn2)cc1 | 186
64 | Cn1nc(NC2c3cc(C#N)ccc3OC(C)(C)C2O)ccc1=O (stereo not given) | 117 to 119
65 | CCn1c(C(=O)N(C)Cc2cc(C(F)(F)F)cc(C(F)(F)F)c2)c(-c2ccccc2)c2ccccc2c1=O | 105 to 106
66 | CC(C)(C)OC1CC(n2cnc3c(Cl)ncnc32)C2CC12COCc1ccccc1 (stereo not given) | 112 to 113
67 | N#Cc1cc(Br)ccc1NC(=O)c1cccc(S(=O)(=O)N2CCOCC2)c1 | 185 to 187
68 | COc1ccc(NCCCOc2ccc3cc(OCCCNc4ccc(OC)cc4)ccc3c2)cc1 | 129
69 | CC(Cn1ncnn1)n1nnc2cc3c(cc2c1=O)OC1COCCN1C3=O (stereo not given) | 188 to 190
70 | Cc1cc2c(cc1C)C(=O)C(CN1CCC3(CC1)C(=O)NCN3c1ccccc1)CC2 (stereo not given) | 182 to 183
71 | Cc1nn(-c2ccc(C(=O)O)cc2)c(O)c1-c1c(C)nn(-c2ccc(C(=O)O)cc2)c1O | > 280
72 | CCOC(=O)c1cn2c(cc(-c3cccc(Cl)c3)c3cc(C(c4ccc(Cl)cc4)c4nncn4C)ccc32)n1 (stereo not given) | 220
73 | CCS(=O)c1nnc2n1C=Cc1ccccc1C2 (stereo not given) | 98 to 99
74 | O=C(NCCSCc1cccc(F)c1)c1c(F)cccc1F | 39 to 41
75 | CCOC(=O)COC(=O)COc1ccc(OCC(=O)OCC)cc1NC(=O)c1ccc(OCCCCc2ccccc2)cc1 | 64

Row | Compound | melting point [°C]
76 | COC(=O)c1ccc2c(=O)n(CC(C)C)c(CNC(=O)OC(C)(C)C)c(-c3ccccc3F)c2c1 | 180 to 181
77 | O=C(c1cccc2nc3n(c12)CCCN3c1ccc(Cl)cc1Cl)C1CC1 | 189 to 190
78 | O=C(O)c1ccc2oc3ccccc3c2c1 | 172 to 173
79 | CCCNc1nc(C)c(CCO)c(=O)n1C | 240
80 | CN(Cc1cc(C(F)(F)F)cc(C(F)(F)F)c1)C(=O)c1nc(Cl)c2ccccc2c1-c1ccc(F)cc1 | 142 to 143
81 | O=c1[nH]c2cccc(OCC(O)CNCCc3ccc(-n4c(CCC5CCCC5)nc5cccnc54)cc3)c2[nH]1 (stereo not given) | 115 to 117
82 | O=c1ccn([C@H]2[C@H](O)[C@H](O)[C@@H](CO)C23CC3)c(=O)[nH]1 | 114 to 116
83 | CSC1=NC2=NC3=C(CN(Cc4ccccc4)CC3=O)CN2N1 | 245 to 247
84 | COc1ccc2c(c1)c1c(n2C)CC(C(N)=O)C1 (stereo not given) | 178 to 180
85 | CCOC1=Nc2c(C)cccc2Nc2ncccc21 | 135 to 136
86 | Nc1ccc(CCc2nnco2)cc1 | 73 to 74
87 | CN(C)CCOC(=O)c1cc2cccc(O)c2[nH]1 | 149 to 152
88 | Nc1ncnc2c1ncn2C1CC(O)(C(=O)c2cccc(C(F)(F)F)c2)C(COC(=O)c2cccc(C(F)(F)F)c2)O1 (stereo not given) | 160
89 | O=C(OCc1ccc(Cl)cc1)c1ncn2c1[C@@H]1CCCN1C(=O)c1c(Cl)cccc1-2 | 183 to 184
90 | COc1cc(Oc2cccc(C(F)(F)F)c2)nc(C(=S)Nc2ccccc2)c1 | 126 to 128
91 | CC[C@H](CC(=O)NC(=O)OCc1ccccc1)Nc1ccc(C(F)(F)F)cc1 | 101
92 | CCn1nc2c(N)nc3ccccc3c2c1CC1(F)CCN(S(C)(=O)=O)CC1 | 269 to 271
93 | CCOC(=O)C=Cc1cc(OCc2ccccc2)ccc1-c1ccc(-c2cccc(C(F)(F)F)c2)c(C=O)c1 | 116 to 118
94 | O=S(=O)(Nc1ccc(Cl)cc1)c1ccc(Cl)cc1 | 144 to 146
95 | Cc1cccc(NC(=O)NC2N=C(C(C)C)c3cccc(C)c3N(CC(=O)N3CC4CCC(CC4)C3)C2=O)c1 (stereo not given) | 190 to 193
96 | CCC(=O)OC1(C(=O)CCl)CCC2C3CCC4CC(=O)CCC4(C)C3(F)C(=O)CC21C (stereo not given) | 168
97 | Cc1ccc(C)n1S(=O)(=O)c1ccc(CC(=O)c2ccccc2)cc1 | 94.6 to 98.8
98 | O=C(C=Cc1ccc(CNC2CC2)cc1)Nc1ccc(-c2ccc(Cl)cc2)cc1 | 222 to 223
99 | CC(=O)c1c(NC(C)(C)C)nc(NC(C)(C)C)c(Br)c1C | 99 to 100
100 | Oc1ccc2ccc(OCc3ccc4ccccc4n3)cc2c1 | 218 to 220
